# Experimental data: ChEMBL document CHEMBL1201862, “PubChem BioAssay data set” (2004)
# The source made the active and inactive calls.
# Key:
# [1] = target: T1, Trace amine-associated receptor 1 (Homo sapiens, UniProt Q96RJ0); test: Fluorescence-based cell-based high throughput dose response assay to identify agonists of the human trace amine associated receptor 1 (TAAR1).; assay type: functional
# T1 sequence (Q96RJ0 whole entry): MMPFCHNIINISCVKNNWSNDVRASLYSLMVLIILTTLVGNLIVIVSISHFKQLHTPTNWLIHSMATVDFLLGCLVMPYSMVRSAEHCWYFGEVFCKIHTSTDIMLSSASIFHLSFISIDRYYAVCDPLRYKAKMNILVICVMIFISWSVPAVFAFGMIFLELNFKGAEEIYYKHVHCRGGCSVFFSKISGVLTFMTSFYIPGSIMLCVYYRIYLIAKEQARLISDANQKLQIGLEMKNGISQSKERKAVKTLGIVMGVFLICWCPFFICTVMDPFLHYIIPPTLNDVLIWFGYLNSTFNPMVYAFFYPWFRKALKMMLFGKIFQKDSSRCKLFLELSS
# [2] = target: T1, Trace amine-associated receptor 1; test: Counterscreen for agonists of the human trace amine associated receptor 1 (hTAAR1): Fluorescence-based cell-based high throughput dose response assay to identify hTAAR1 agonist that also desensitize TAAR1 receptor response.; assay type: functional
# cells [3] = assay type: functional, cell-based
# cells [4] = assay type: functional, cell-based; remark: listed apart in the source
# Beta-galactosidase = Beta-galactosidase (Escherichia coli, UniProt Q8VNN2); test: Dose response counterscreen for EBI2 assay utilizing the enzyme, b-galactosidase.; assay type: functional
# Beta-galactosidase, sequence (Q8VNN2 whole entry): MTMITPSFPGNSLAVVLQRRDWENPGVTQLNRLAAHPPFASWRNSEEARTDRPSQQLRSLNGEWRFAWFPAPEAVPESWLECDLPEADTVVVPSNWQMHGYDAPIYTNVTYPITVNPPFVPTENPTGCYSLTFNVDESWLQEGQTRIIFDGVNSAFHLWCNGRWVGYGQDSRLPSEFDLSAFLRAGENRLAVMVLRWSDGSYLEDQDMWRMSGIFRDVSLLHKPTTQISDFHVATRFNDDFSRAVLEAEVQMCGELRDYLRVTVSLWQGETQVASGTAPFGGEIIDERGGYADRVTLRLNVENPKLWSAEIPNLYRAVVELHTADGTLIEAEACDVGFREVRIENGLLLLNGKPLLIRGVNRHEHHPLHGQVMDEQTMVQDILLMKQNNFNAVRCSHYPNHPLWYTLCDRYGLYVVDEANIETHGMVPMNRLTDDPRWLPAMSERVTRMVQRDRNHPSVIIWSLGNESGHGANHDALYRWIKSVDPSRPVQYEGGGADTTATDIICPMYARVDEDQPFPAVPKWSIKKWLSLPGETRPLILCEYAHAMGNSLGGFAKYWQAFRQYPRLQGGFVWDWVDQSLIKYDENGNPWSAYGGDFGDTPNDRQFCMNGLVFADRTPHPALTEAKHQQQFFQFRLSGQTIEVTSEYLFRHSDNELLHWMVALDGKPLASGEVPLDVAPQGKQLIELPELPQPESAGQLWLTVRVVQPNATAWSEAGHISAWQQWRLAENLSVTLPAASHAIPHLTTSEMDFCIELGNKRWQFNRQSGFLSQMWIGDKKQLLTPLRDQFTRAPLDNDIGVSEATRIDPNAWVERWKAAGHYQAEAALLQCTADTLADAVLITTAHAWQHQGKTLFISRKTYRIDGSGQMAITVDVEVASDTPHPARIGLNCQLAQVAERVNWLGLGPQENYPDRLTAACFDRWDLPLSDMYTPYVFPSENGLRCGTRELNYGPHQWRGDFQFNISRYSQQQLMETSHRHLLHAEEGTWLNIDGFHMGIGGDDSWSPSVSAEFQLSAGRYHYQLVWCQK
# [5] = Cytotoxicity screening for potential Inhibitors of Bacterial Capsule Biogenesis (4).; assay type: functional
# [6] = HEK293 cell viability, dose response, counter-screen for EBV LMP1 inhibitor project, dry powder, set 2 (AID 624374); assay type: functional
# [7] = off-target signal loss in HeLa-CEM21 co-culture – HeLa F-luc CTL cells, cherry-picked, counter-screen for HIV-1 Env fusion inhibitor project, dose response (AID 652040); assay type: functional, cell-based;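 note: potency for signal decrease marking cytotoxic or nonspecific inhibition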
# [8] = inhibitors of clade B AD8 Env fusion, dose response, cell-based, cherry-pick (AID 652062); assay type: functional;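 note: luciferase signal from cell-cell fusion driven by HIV-1 clade B AD8 Env; potency is for inhibitors of fusion seen as a drop in luminescence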
# [9] = inhibitors of HIV Env-driven cell fusion, dose response, cherry-pick (AID 652057); assay type: functional, cell-based
# [10] = ZM109 Env clade C HIV-1 fusion inhibitors, dose response, HeLa effector, CEM target cells, luciferase, cherry-pick (AID 652058); assay type: functional, cell-based
# [11] = Counterscreen for inhibitors of Trypanosoma brucei methionyl tRNA synthetase (MetRS): Luminescence-based cell-based high throughput dose response assay to identify compounds that are cytotoxic to Jurkat human T lymphocyte cells.; assay type: functional
# [12] = target: T2, Methionyl-tRNA synthetase, putative (Trypanosoma brucei brucei, UniProt Q38C91); assay type: functional, Trypanosoma brucei brucei strain 927/4 GUTat10.1
# T2 sequence (Q38C91 whole entry): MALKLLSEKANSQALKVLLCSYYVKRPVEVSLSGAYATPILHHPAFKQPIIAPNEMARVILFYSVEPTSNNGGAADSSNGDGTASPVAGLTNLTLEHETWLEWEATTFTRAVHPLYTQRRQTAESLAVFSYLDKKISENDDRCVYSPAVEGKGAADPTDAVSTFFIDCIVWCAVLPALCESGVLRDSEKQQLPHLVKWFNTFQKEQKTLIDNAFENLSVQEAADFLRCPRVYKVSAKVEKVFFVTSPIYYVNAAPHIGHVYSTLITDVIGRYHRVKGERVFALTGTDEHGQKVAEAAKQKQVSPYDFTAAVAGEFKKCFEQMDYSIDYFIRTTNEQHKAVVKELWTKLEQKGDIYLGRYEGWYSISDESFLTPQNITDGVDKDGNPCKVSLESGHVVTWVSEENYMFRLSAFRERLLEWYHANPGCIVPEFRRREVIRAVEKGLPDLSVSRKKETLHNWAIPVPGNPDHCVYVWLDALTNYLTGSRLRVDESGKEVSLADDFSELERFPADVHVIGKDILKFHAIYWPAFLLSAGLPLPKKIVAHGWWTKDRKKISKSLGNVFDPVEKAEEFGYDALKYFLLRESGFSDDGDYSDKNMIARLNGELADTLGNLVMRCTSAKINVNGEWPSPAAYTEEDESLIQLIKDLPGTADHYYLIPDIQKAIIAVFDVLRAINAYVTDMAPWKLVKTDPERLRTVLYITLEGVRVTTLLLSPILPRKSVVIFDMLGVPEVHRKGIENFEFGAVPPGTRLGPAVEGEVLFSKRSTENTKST
# [13] = target: T2, Methionyl-tRNA synthetase, putative; assay type: functional, Trypanosoma brucei brucei strain 927/4 GUTat10.1; remark: listed apart in the source
# [14] = target: T3, Heat shock factor protein 1 (Mus musculus, UniProt P38532); test: HSF1 potentiators in luciferase reporter cells, confirmation, cell-based, NIH3T3, luminescence, dose retest (AID 435004); assay type: functional;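 note: stress induced by proteasome inhibitor MG132 added 30 min after compound; luciferase reporter driven by HSF1 response element in NIH3T3 cells; actives raise luminescence as potentiators of the MG132 stress response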
# T3 sequence (P38532 whole entry): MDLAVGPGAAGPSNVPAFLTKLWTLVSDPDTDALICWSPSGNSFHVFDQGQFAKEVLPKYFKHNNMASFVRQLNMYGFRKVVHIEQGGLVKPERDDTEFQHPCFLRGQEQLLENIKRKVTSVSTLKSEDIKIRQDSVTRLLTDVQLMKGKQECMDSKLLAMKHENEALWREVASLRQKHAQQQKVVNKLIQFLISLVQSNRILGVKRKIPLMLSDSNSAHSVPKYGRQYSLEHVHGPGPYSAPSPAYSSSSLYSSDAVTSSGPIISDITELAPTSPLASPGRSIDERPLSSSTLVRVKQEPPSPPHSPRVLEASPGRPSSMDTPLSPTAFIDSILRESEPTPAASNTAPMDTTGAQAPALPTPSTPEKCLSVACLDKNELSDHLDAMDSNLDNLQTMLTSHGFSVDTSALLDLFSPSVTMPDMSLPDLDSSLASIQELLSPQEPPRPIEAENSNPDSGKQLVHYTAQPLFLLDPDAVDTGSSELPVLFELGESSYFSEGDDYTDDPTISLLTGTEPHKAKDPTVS
# [15] = Vero E6 cell cytotoxicity, dose response, cytotoxicity control for non-replicating M. tuberculosis project, secondary assay (AID 492998); assay type: functional, VeroE6; conditions: Vero C1008
# Albumin = Albumin (Bos taurus, UniProt P02769); test: Counterscreen for inhibitors of T-cell receptor (TCR)-CD3 interaction: Fluorescence-based biochemical high throughput dose response assay to identify inhibitors of T-cell receptor (TCR)-CD3 interaction using a TAMRA-labeled BSA probe.; assay type: functional
# Albumin, sequence (P02769 whole entry): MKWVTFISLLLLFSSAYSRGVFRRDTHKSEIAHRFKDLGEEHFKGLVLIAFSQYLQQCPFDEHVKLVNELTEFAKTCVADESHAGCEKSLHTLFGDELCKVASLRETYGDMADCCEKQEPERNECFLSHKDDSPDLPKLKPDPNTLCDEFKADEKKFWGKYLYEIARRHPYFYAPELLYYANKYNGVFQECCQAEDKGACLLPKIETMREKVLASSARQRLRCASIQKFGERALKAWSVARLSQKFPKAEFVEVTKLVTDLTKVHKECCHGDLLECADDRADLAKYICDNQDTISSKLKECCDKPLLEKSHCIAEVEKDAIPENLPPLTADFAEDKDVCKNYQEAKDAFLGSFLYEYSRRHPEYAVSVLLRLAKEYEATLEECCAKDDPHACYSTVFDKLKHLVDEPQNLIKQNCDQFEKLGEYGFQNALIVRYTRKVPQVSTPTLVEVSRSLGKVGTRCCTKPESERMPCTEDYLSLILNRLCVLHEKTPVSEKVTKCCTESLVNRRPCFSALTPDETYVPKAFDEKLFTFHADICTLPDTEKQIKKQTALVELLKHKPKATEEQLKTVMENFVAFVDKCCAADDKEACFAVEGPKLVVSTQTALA
# [16] = THP-1 cell cytotoxicity, dose response, cytotoxicity control for non-replicating M. tuberculosis project (AID 489025); assay type: functional
# [17] = microbe, parasite or virus in culture; assay type: functional; conditions: Mycobacterium tuberculosis
# cells [18] = assay type: functional
# [19] = NIH-3T3 fibroblast cytotoxicity, dose response, cytotoxicity control, cell-based, fluorescence, Alamar Blue, secondary assay (AID 2327); assay type: functional;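 note: NIH-3T3 mouse fibroblasts cultured with fluconazole at 8 µg/mL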
# [20] = C. albicans growth with fluconazole, confirmation, fluorescence, retest (AID 2467); assay type: functional, cell-based
# [21] = HEK293 cell cytotoxicity, dose response, cytotoxicity control, plate reader, cherry-picked samples (AID 743446); assay type: functional, cell-based
# [22] = MC4R antagonists, dose response, counter-screen for LGR2 antagonist project, cell-based, plate reader, cherry pick (AID 743444); assay type: functional;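 note: transfected HEK 293 cells stimulated with alpha-MSH peptide; potency of inhibitors of the alpha-MSH evoked signal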
# [23] = LGR2 antagonists, dose response, cell-based, HEK293, CRE-luciferase reporter, cherry pick, set 2 (AID 743343); assay type: functional;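 note: transfected cells were stimulated with diluted bursicon conditioned medium after compound addition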
# [24] = A549 cell cytotoxicity, dose response, cytotoxicity control, plate reader, cherry-pick, antagonist series (AID 743412); assay type: functional, cell-based
# [25] = HEp-2 cell cytotoxicity, dose response, cytotoxicity control for RSV inhibitor project, HTS (AID 2410); assay type: functional; conditions: human respiratory syncytial virus
# [26] = HepG2 cell cytotoxicity, dose response, cytotoxicity control, plate reader, cherry-pick, antagonist series (AID 743416); assay type: functional, cell-based
# Streptococcus = test: Group A Streptococcus viability loss, dose response, counter-screen for streptokinase expression inhibitor project, luminescence, BacTiterGlo (AID 1915); assay type: functional, organism-based;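 note: potency for reduction of bacterial viability or growth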
# [27] = tested on: Streptococcus sp. 'group A'; test: growth inhibition of control SK(-) GAS strain, dose response, counter-screen for streptokinase expression inhibitor project, luminescence, kanamycin, BacTiterGlo, confirmation (AID 1900); assay type: functional, organism-based
# Caspase-6 = target: T4, Caspase-6 (Homo sapiens, UniProt P55212); test: human caspase-6 inhibitors, dose response, biochemical, VEID-R110 fluorescence, cherry-pick (AID 720632)
# T4 sequence (P55212 whole entry): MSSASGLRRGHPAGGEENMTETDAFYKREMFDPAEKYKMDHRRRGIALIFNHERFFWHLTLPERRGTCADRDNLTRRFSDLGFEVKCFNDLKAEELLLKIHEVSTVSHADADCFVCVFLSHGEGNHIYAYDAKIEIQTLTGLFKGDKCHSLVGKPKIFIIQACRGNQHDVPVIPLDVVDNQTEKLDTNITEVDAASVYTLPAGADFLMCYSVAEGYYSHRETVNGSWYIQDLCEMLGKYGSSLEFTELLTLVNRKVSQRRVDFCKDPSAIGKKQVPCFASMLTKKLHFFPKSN
# Vero = test: cells; assay type: functional; conditions: Chlorocebus sabaeus
# [28] = target: Luciferin 4-monooxygenase (Photinus pyralis, UniProt P08659); test: Counter Screen for Luciferase-based Assay Positives. [Related pubchem assays: 620, 618, 411 ]
# Luciferin 4-monooxygenase, sequence (P08659 whole entry): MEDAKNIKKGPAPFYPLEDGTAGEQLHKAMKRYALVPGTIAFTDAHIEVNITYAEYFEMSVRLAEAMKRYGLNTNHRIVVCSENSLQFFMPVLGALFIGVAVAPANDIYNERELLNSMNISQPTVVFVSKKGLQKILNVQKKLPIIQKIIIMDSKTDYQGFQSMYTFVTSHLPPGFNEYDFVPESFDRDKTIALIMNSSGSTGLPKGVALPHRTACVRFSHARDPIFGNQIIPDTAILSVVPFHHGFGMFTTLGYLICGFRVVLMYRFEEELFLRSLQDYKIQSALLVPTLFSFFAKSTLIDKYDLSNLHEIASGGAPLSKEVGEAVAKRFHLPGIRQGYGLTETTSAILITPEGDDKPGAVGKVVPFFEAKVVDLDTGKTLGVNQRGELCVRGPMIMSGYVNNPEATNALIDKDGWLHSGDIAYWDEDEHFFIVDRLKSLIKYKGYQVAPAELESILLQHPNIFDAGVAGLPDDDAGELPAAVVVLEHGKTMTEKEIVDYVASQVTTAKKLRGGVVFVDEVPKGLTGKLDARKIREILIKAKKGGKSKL
# HT-1080 = test: cytotoxicity in HT1080 fibrosarcoma cells, cell-based, fluorescence readout (AID 620); assay type: functional; conditions: Homo sapiens
# HEK293 = test: inhibitors of LMP1-driven NF-kB reporter, dose response, cell-based, HEK293, luciferase, cherry-pick (AID 588343); assay type: functional, Homo sapiens; conditions: Homo sapiens, HEK293
structure (smiles),measurement,setting,value
Cc1cc2c(cc1S(=O)(=O)CCC(=O)NCCc1ccccc1)OCC(=O)N2,EC50,[1],3.59 µM (active)
same,IC50,[2],5.78 µM (active)
same,IC50,cells [3],> 29.9 µM (inactive)
same,EC50,cells [4],> 29.9 µM (inactive)
COc1cc(/C=C(\C#N)C(N)=O)ccc1OS(=O)(=O)c1ccc(C)cc1,IC50,Beta-galactosidase,> 80 µM (inactive)
O=C(Nc1ccncc1F)c1ccc2ncsc2c1,CC50,[5],> 300 µM (inactive)
Cc1ccc(C)c(N2CN(CCC3=CCCCC3)CN=C2S)c1,EC50,[1],4.03 µM (active)
same,IC50,[2],7.73 µM (active)
same,IC50,cells [3],> 29.9 µM (inactive)
same,EC50,cells [4],> 29.9 µM (inactive)
O=C(C[C@@H]1CC[C@@H]2[C@H](COC[C@@H](O)CN2Cc2ccc(Oc3ccccc3)cc2)O1)N1CCc2ccccc2C1,AbsAC35,[6],79.64 µM
O=C(CCCCn1c(=O)[nH]c2ccccc2c1=O)N1CCN(c2cccc(C(F)(F)F)c2)CC1,AC50,[7],16 µM (active)
same,AC50,[8],8.93 µM (active)
same,AC50,[9],11.1 µM (active)
same,AC50,[10],3.8 µM (active)
Cc1cnccc1NC(=O)c1ccc2ncsc2c1,CC50,[5],> 300 µM (inactive)
Cn1c(CCCOc2ccc(Cl)cc2Cl)nnc1SCC(=O)Nc1cccc(F)c1,IC50,[11],28.3 µM (inactive)
same,IC50,[12],119 µM (inactive)
same,IC50,[13],52.2 µM (inactive)
same,EC50,[14],181 µM (active)
CO[C@@H]1CN(C)C(=O)c2ccc(NC(C)=O)cc2OC[C@@H](C)N(Cc2ccccc2F)C[C@H]1C,AbsAC35,[6],167.32 µM
N#C[C@@H]1[C@H](c2ccc(C#Cc3ccccc3F)cc2)[C@@H](CO)N1C(=O)c1cccnc1,AbsAC35,[6],93.82 µM
COc1ccc(-n2nnnc2C(c2ccccc2OC(F)(F)F)N2CCN(C/C=C/c3ccccc3)CC2)cc1 (configuration not stated),IC50,Beta-galactosidase,> 80 µM (inactive)
Cc1cc2oc3ccc(NCCCn4ccnc4)cc3c(=O)c2cc1C,CC50,[15],14.6 µM (active)
same,IC50,Albumin,> 94.1 µM (inactive)
same,CC50,[16],26.9 µM (active)
same,CC50,[17],12.4 µM (active)
same,IC50,cells [18],27.9 µM (active)
same,EC50,[19],24.7 µM (active)
same,EC50,[20],1.82 µM (active)
CCC(=O)Nc1cccc(-c2ccc(N3CCC(C)CC3)nn2)c1,AC50,[21],35.7 µM (active)
same,AC50,[22],10.3 µM (active)
same,AC50,[23],6.78 µM (active)
same,AC50,[24],> 52 µM (inactive)
same,CC50,[25],26.9 µM (active)
same,AC50,[26],> 52 µM (inactive)
Cc1cc(C(=O)N/N=C/c2cc(Br)cc([N+](=O)[O-])c2O)c2ccccc2n1,IC50,Albumin,> 94.1 µM (inactive)
same,EC50,Streptococcus,1.5 µM (active)
same,EC50,[27],1.36 µM (active)
COc1ccc(-n2cc(-c3ccc(Cl)cc3)nc2S)cc1,IC50,Beta-galactosidase,> 80 µM (inactive)
Cc1cc(NC(=O)c2ccc3nc(NC(=O)OC(C)(C)C)sc3c2)ccn1,CC50,[5],96.8 µM (active)
CCOC(=O)[C@H](Cc1c[nH]c2ccccc12)NC(=O)CN=[N+]=[N-],AC50,Caspase-6,6.78 µM (active)
O=[N+]([O-])c1ccc(/C=[N+](\[O-])[C@@H]2CCCC[C@@H]2/[N+]([O-])=C/c2ccc([N+](=O)[O-])o2)o1,AC50,Caspase-6,41.1 µM (active)
same,EC50,[14],8.46 µM (active)
same,CC50,Vero,14.8 µM (active)
CC(CNC(=O)[C@H]1O[C@@H](n2cnc3c(=O)[nH]c(N)nc32)[C@H](O)[C@@H]1O)c1ccccc1 (some centres not stated),EC50,[1],1.54 µM (active)
same,IC50,[2],3.77 µM (active)
same,IC50,cells [3],> 29.9 µM (inactive)
same,EC50,cells [4],> 29.9 µM (inactive)
c1ccc(-c2nc(-c3ccccn3)no2)cc1,EC50,[28],0.35 µM (active)
same,AC50,[21],7.31 µM (active)
same,AC50,[22],2.47 µM (active)
same,EC50,HT-1080,> 50 µM (not active)
same,AC50,[23],2.65 µM (active)
same,AC50,[24],6.2 µM (active)
same,AC50,[26],9.19 µM (active)
same,AC50,HEK293,1.68 µM (active)
